Experimental data from US20210386068A1, “COMPOSITIONS COMPRISING PYRIDINE CARBOXYLATE HERBICIDES AND VERY LONG CHAIN FATTY ACID (VLCFA) SYNTHESIS INHIBITOR HERBICIDES” (priority 2018, published 2021).
Values joined by “and” are separate entries in the source; they are usually repeats but may differ in a detail not shown here. Equal values may be shown once.

What was measured:
Format in all cases: in vivo
[1] = system: Stellaria media (common chickweed, STEME); test: Greenhouse postemergence herbicidal effect, visual injury 20-22 d after spraying, common chickweed (STEME)
Text: (§1) Seeds of the desired test plant species were planted in a 90:10% v/v (volume/volume) mixture of PRO-MIX® BX (Premier Tech Horticulture, Quakertown, Pa., USA) and PROFILE® GREENS GRADE™ (Profile Products LLC, Buffalo Grove, Ill., USA) planting mixture, which typically has a pH of 5.2 to 6.2 and an organic matter content of at least 50 percent, in plastic pots with a surface area of 103.2 square centimeters (cm^2). In some aspects, to ensure good germination and healthy plants, a fungicide treatment and/or other chemical or physical treatment was applied. The plants were grown for 7-36 days (d) in a greenhouse with an approximate 14-hour (h) photoperiod which was maintained at about 23° C. during the day and 22° C. during the night. Nutrients and water were added on a regular basis and supplemental lighting was provided with overhead metal halide 1000-Watt lamps as necessary. The plants were employed for testing when they reached the second or third true leaf stage.
(§2) Emulsifiable concentrates of each of each pyridine carboxylate herbicide (Compound A or Compound B) were prepared at 100 grams acid equivalent per liter (g ae/L). The emulsifiable concentrates also included a safener, cloquintocet-mexyl, at 120 grams active ingredient per liter (g ai/L). An aliquot of each emulsifiable concentrate was placed in a 25 mL glass vial and diluted with an aqueous mixture of 1.25% (v/v) ACTIROB® B esterified rapeseed oil (Bayer Crop Science, Research Triangle Park, N.C., USA) or MSO® Concentrate with LECI-TECH® methylated soybean oil (Loveland Products, Loveland, Colo., USA) to obtain concentrated stock solutions at the highest application rate for each herbicide, based upon a 12 milliliter (mL) application volume at a rate of 187 liters per hectare (L/ha). The concentrated stock solutions were further diluted with an aqueous mixture of 1.25% v/v ACTIROB® B or MSO® Concentrate with LECI-TECH® to obtain stock solutions at reduced application rates for each herbicide. Spray solutions of the herbicide combinations (Compound A or Compound B plus VLCFA synthesis inhibitor herbicide) were prepared by adding weighed amounts or aliquots of the VLCFA synthesis inhibitor herbicide to the stock solutions of Compound A or Compound B to form 12-mL spray solutions in two-way combinations.
(§3) The spray solutions were applied to the plant material with an overhead Mandel track sprayer equipped with 8002E nozzles calibrated to deliver 187 L/ha over an application area of 0.503 square meters (m^2) at a spray height of 18 inches ([…] (cm)) above the average plant canopy. Control plants were sprayed in the same manner with the solvent blank. All pyridine carboxylate herbicide (component a) application rates are given as “g ae/ha” and all VLCFA synthesis inhibitor herbicide (component b) application rates are given as “g ai/ha.”
(§4) The treated plants and control plants were placed in a greenhouse as described above and watered by sub-irrigation to prevent wash-off of the test compounds. After 20-22 d, the condition of the test plants as compared with that of the control plants was determined visually and scored on a scale of 0 to 100 percent where 0 corresponds to no injury and 100 corresponds to complete kill.

[2] = system: Cirsium arvense (Canadian thistle, CIRAR); test: Greenhouse postemergence herbicidal effect, visual injury 20-22 d after spraying, Canadian thistle (CIRAR)
Text: as §1, §2, §3, §4

[3] = system: Chenopodium album L. (common lambsquarters, CHEAL); test: Greenhouse postemergence herbicidal effect, visual injury 20-22 d after spraying, common lambsquarters (CHEAL)
Text: as §1, §2, §3, §4

[4] = system: Matricaria chamomilla (wild chamomile, MATCH); test: Greenhouse postemergence herbicidal effect, visual injury 20-22 d after spraying, wild chamomile (MATCH)
Text: as §1, §2, §3, §4

[5] = system: Papaver rhoeas (common poppy, PAPRH); test: Greenhouse postemergence herbicidal effect, visual injury 20-22 d after spraying, common poppy (PAPRH)
Text: as §1, §2, §3, §4

[6] = system: Amaranthus retroflexus (pigweed, AMARE); test: Greenhouse postemergence herbicidal effect, visual injury 20-22 d after spraying, pigweed (AMARE)
Text: as §1, §2, §3, §4

[7] = system: Capsella bursa-pastoris (shepherd's purse, CAPBP); test: Greenhouse postemergence herbicidal effect, visual injury 20-22 d after spraying, shepherd's purse (CAPBP)
Text: as §1, §2, §3, §4

[8] = system: Lamium purpureum (purple deadnettle, LAMPU); test: Greenhouse postemergence herbicidal effect, visual injury 20-22 d after spraying, purple deadnettle (LAMPU)
Text: as §1, §2, §3, §4

[9] = system: Matricaria discoidea (pineapple weed, MATMT); test: Greenhouse postemergence herbicidal effect, visual injury 20-22 d after spraying, pineapple weed (MATMT)
Text: as §1, §2, §3, §4

[10] = system: Salsola kali (Russian thistle, SASKR); test: Greenhouse postemergence herbicidal effect, visual injury 20-22 d after spraying, Russian thistle (SASKR); conditions: for % visual injury Obs: SASKR
Text: as §1, §2, §3, §4

[11] = system: Veronica persica (Persian speedwell, VERPE); test: Greenhouse postemergence herbicidal effect, visual injury 20-22 d after spraying, Persian speedwell (VERPE)
Text: as §1, §2, §3, §4

[12] = system: Matricaria inodora (scentless chamomile, MATIN); test: Greenhouse postemergence herbicidal effect, visual injury 20-22 d after spraying, scentless chamomile (MATIN)
Text: as §1, §2, §3, §4

[13] = system: Ipomoea hederacea (ivyleaf morningglory, IPOHE); test: Greenhouse postemergence herbicidal effect, visual injury 20-22 d after spraying, ivyleaf morningglory (IPOHE)
Text: as §1
Emulsifiable concentrates of each of each pyridine carboxylate herbicide (Compound A or Compound B) were prepared at 100 grams acid equivalent per liter (g ae/L). The emulsifiable concentrates also included a safener, cloquintocet-mexyl, at 120 grams active ingredient per liter (g ai/L). […]
as §4

[14] = system: Viola tricolor (wild pansy, VIOTR); test: Greenhouse postemergence herbicidal effect, visual injury 20-22 d after spraying, wild pansy (VIOTR); conditions: for % visual injury Obs: VIOTR
Text: as §1, §2, §3, §4

[15] = system: Veronica hederifolia (ivy-leaved speedwell, VERHE); test: Greenhouse postemergence herbicidal effect, visual injury 20-22 d after spraying, ivy-leaved speedwell (VERHE)
Text: as §1, §2, §3, §4

[16] = system: Brassica napus (spring rape, BRSNN); test: Greenhouse postemergence herbicidal effect, visual injury 20-22 d after spraying, spring rape (BRSNN)
Text: as §1, §2, §3, §4

[17] = system: Hordeum vulgare (spring barley, HORVS); test: Greenhouse postemergence crop phytotoxicity, visual injury 20-22 d after spraying, spring barley (HORVS); conditions: for % visual injury Obs: HORVS
Text: as §1, §2, §3, §4

Compound: N#CCOC(=O)c1nc(-c2ccc3cc[nH]c3c2F)c(F)c(N)c1Cl [Compound A, cyanomethyl 4-amino-3-chloro-5-fluoro-6-(7-fluoro-1H-indol-6-yl)pyridine-2-carboxylate]
- % visual injury STEME Obs ([1]; Compound A 7.5 g/ha): 85%
- % visual injury STEME Obs ([1]; Compound A 10 g/ha): 88%
- % visual injury STEME Obs ([1]; Compound A 15 g/ha): 89%
- % visual injury CIRAR Obs ([2]; Compound A 7.5 g/ha): 50%
- % visual injury CIRAR Obs ([2]; Compound A 10 g/ha): 63%
- % visual injury CIRAR Obs ([2]; Compound A 15 g/ha): 63%
- % visual injury Obs ([3]; Compound A 7.5 g/ha alone): 88% and 70% and 60% and 75%
- % visual injury Obs ([3]; Compound A 10 g/ha alone): 93% and 83% and 90% and 80%
- % visual injury MATCH Obs ([4]; Compound A 7.5 g/ha): 23%
- % visual injury MATCH Obs ([4]; Compound A 10 g/ha): 35%
- % visual injury MATCH Obs ([4]; Compound A 15 g/ha): 45%
- % visual injury PAPRH Obs ([5]; Compound A 7.5 g/ha): 100%
- % visual injury PAPRH Obs ([5]; Compound A 10 g/ha): 99%
- % visual injury PAPRH Obs ([5]; Compound A 15 g/ha): 100%
- % visual injury Obs ([6]; Compound A 7.5 g/ha alone): 78% and 80% and 70% and 90%
- % visual injury Obs ([6]; Compound A 10 g/ha alone): 73% and 85% and 98%
- % visual injury CAPBP Obs ([7]; Compound A 7.5 g/ha): 45%
- % visual injury CAPBP Obs ([7]; Compound A 10 g/ha): 55%
- % visual injury CAPBP Obs ([7]; Compound A 15 g/ha): 55%
- % visual injury LAMPU Obs ([8]; Compound A 7.5 g/ha): 68%
- % visual injury LAMPU Obs ([8]; Compound A 10 g/ha): 73%
- % visual injury LAMPU Obs ([8]; Compound A 15 g/ha): 73%
- % visual injury MATMT Obs ([9]; Compound A 7.5 g/ha): 20%
- % visual injury MATMT Obs ([9]; Compound A 10 g/ha): 20%
- % visual injury MATMT Obs ([9]; Compound A 15 g/ha): 63%
- % visual injury SASKR Obs ([10]; Compound A 7.5 g/ha): 50%
- % visual injury SASKR Obs ([10]; Compound A 10 g/ha): 60%
- % visual injury SASKR Obs ([10]; Compound A 15 g/ha): 63%
- % visual injury Obs ([10]; Compound A 7.5 g/ha alone): 60% and 45% and 38%
- % visual injury Obs ([10]; Compound A 10 g/ha alone): 63% and 60%
- % visual injury VERVE Obs ([11]; Compound A 7.5 g/ha): 78%
- % visual injury VERVE Obs ([11]; Compound A 10 g/ha): 90%
- % visual injury VERVE Obs ([11]; Compound A 15 g/ha): 93%
- % visual injury MATIN Obs ([12]; Compound A 7.5 g/ha): 55%
- % visual injury MATIN Obs ([12]; Compound A 10 g/ha): 60%
- % visual injury MATIN Obs ([12]; Compound A 15 g/ha): 83%
- % visual injury Obs ([13]; Compound A 7.5 g/ha alone): 5%
- % visual injury Obs ([13]; Compound A 10 g/ha alone): 0%
- % visual injury VIOTR Obs ([14]; Compound A 7.5 g/ha): 13%
- % visual injury VIOTR Obs ([14]; Compound A 10 g/ha): 15%
- % visual injury VIOTR Obs ([14]; Compound A 15 g/ha): 15%
- % visual injury Obs ([14]; Compound A 7.5 g/ha alone): 3%
- % visual injury Obs ([14]; Compound A 10 g/ha alone): 3%
- % visual injury VERHE Obs ([15]; Compound A 7.5 g/ha): 68%
- % visual injury VERHE Obs ([15]; Compound A 10 g/ha): 73%
- % visual injury VERHE Obs ([15]; Compound A 15 g/ha): 75%
- % visual injury Obs ([16]; Compound A 7.5 g/ha alone): 55%
- % visual injury Obs ([16]; Compound A 10 g/ha alone): 60% and 70%
- % visual injury HORVS Obs ([17]; Compound A 7.5 g/ha): 0%
- % visual injury HORVS Obs ([17]; Compound A 10 g/ha): 0%
- % visual injury HORVS Obs ([17]; Compound A 15 g/ha): 0%
- % visual injury Obs ([17]; Compound A 7.5 g/ha alone): 0% and 8%
- % visual injury Obs ([17]; Compound A 10 g/ha alone): 0%
